The results in this text go back to patent US10383335B2, “Bicyclic pyrazole pesticides” (FMC Corporation, priority 2015, dated 2019).

Read-outs that look alike come from different tables or passages of the source. Some results are limits rather than exact numbers.

Data set [1] relates to green peach aphid (Myzus persicae (Sulzer)). As to the kind of experiment: Test A: control of green peach aphid on radish plant, spray, contact and/or systemic. The settings on record: 144 h, assessed after 6 days; for mortality at 250 ppm: sprayed at 250 ppm; for mortality at 50 ppm: sprayed at 50 ppm. It is filed as in vivo. On the procedure: (§1) Test compounds were formulated using a solution containing 10% acetone, 90% water and 300 ppm X-77® Spreader Lo-Foam Formula non-ionic surfactant containing alkylarylpolyoxyethylene, free fatty acids, glycols and isopropanol (Loveland Industries, Inc. Greeley, Colo., USA). The formulated compounds were applied in 1 mL of liquid through a SUJ2 atomizer nozzle with ⅛ JJ custom body (Spraying Systems Co. Wheaton, Ill., USA) positioned 1.27 cm (0.5 inches) above the top of each test unit. Test compounds were sprayed at the rates indicated, and each test was replicated three times.
For evaluating control of green peach aphid (Myzus persicae (Sulzer)) through contact and/or systemic means, the test unit consisted of a small open container with a 12-15-day-old radish plant inside. This was pre-infested by placing on a leaf of the test plant 30-40 aphids on a piece of leaf excised from a culture plant (cut-leaf method). The aphids moved onto the test plant as the leaf piece desiccated. After pre-infestation, the soil of the test unit was covered with a layer of sand.
Test compounds were formulated and sprayed at 250 and/or 50 ppm. After spraying of the formulated test compound, each test unit was allowed to dry for 1 hour and then a black, screened cap was placed on top. The test units were held for 6 days in a growth chamber at 19-21° C. and 50-70% relative humidity. Each test unit was then visually assessed for insect mortality.

In data set [2] the test system is cotton melon aphid (Aphis gossypii (Glover)). In words: Test B: control of cotton melon aphid on cotton plant, spray, contact and/or systemic. It is filed as in vivo. The settings on record: 144 h. On the procedure:
as §1
For evaluating control of cotton melon aphid (Aphis gossypii (Glover)) through contact and/or systemic means, the test unit consisted of a small open container with a 6-7-day-old cotton plant inside. This was pre-infested with 30-40 insects on a piece of leaf according to the cut-leaf method, and the soil of the test unit was covered with a layer of sand.
Test compounds were formulated and sprayed at 250 and/or 50 ppm. After spraying, the test units were maintained in a growth chamber for 6 days at 19° C. and 70% relative humidity. Each test unit was then visually assessed for insect mortality.

The subject of data set [3] is Western Flower Thrips (Frankliniella occidentalis (Pergande)). In words: Test C: control of Western Flower Thrips on Soleil bean plant, spray, contact and/or systemic. It is filed as in vivo. The settings on record: sprayed at 250 ppm, adult thrips, held 6 days. The method, then:
as §1
For evaluating control of the Western Flower Thrips (Frankliniella occidentalis (Pergande)) through contact and/or systemic means, the test unit consisted of a small open container with a 5-7-day-old Soleil bean plant inside.
Test compounds were formulated and sprayed at 250 ppm. After spraying, the test units were allowed to dry for 1 hour, and then 22-27 adult thrips were added to each unit. A black, screened cap was placed on top, and the test units were held for 6 days at 25° C. and 45-55% relative humidity.

For data set [4], the system named is sweetpotato whitefly (Bemisia tabaci (Gennadius)). In words: Test D: control of sweetpotato whitefly on cotton plant, spray, contact and/or systemic. The settings on record: 312 h, sprayed at 250 ppm, cotton plant infested with eggs, assessed after 13 days. It is filed as in vivo. On the procedure:
as §1
For evaluating control of the sweetpotato whitefly (Bemisia tabaci (Gennadius)) through contact and/or systemic means, the test unit consisted of a small open container with a 12-14-day-old cotton plant inside. Prior to the spray application, both cotyledons were removed from the plant, leaving one true leaf for the assay. Adult whiteflies were allowed to lay eggs on the plant and then were removed from the test unit. Cotton plants infested with at least 15 eggs were submitted to the test for spraying.
Test compounds were formulated and sprayed at 250 and/or 50 ppm. After spraying, the test units were allowed to dry for 1 hour. […] Each test unit was then visually assessed for insect mortality.

The mark [5] stands for this setting: sprayed at 250 ppm, cotton plant, assessed after 6 days, read-out: mortality.

In turn, `CNC(=O)N1CCc2nn(-c3cccnc3)cc2C1` [Compound 29] showed a melting point of 212 to 224.2 °C.
Turning to `O=C(CCSCC(F)(F)F)N1CCc2nn(-c3cccnc3)cc2C1` [Compound 22, 1-[2,4,6,7-tetrahydro-2-(3-pyridinyl)-5H-pyrazolo[4,3-c]pyridin-5-yl]-3-[(2,2,2-trifluoroethyl)thio]-1-propanone], the mortality at 250 ppm in data set [1] and in data set [2] (setting [5]) was ≥ 80% in each case. The “control efficacy (30% or less plant damage and/or 100% mortality)” value in data set [3] is listed as “very good to excellent levels of control efficacy”.
On to `FC(F)(F)c1cc(N2CCc3nn(-c4cccnc4)cc3C2)ccn1` [Compound 20, 4,5,6,7-tetrahydro-2-(3-pyridinyl)-5-[2-(trifluoromethyl)-4-pyridinyl]-2H-pyrazolo[4,3-c]pyridine], for which, in data set [1], the mortality at 50 ppm is ≥ 80% and the mortality at 250 ppm is ≥ 80%. Also, the “control efficacy (30% or less plant damage and/or 100% mortality)” value in data set [3] is on record as “very good to excellent levels of control efficacy”.
For the compound `N#CCC(=O)N1CCc2nn(-c3cccnc3)cc2C1` [Compound 54, 2,4,6,7-tetrahydro-β-oxo-2-(3-pyridinyl)-5H-pyrazolo[4,3-c]pyridine-5-propanenitrile], the mortality at 250 ppm is ≥ 80% in data set [1], ≥ 80% in data set [2] (setting [5]) and ≥ 50% in data set [4].
For “2,4,6,7-tetrahydro-2-(3-pyridinyl)-N-(2,2,2-trifluoromethyl)-5H-pyrazolo[4,3-c]pyridine-5-carboxamide [Compound 15]”, in data set [3], the “control efficacy (30% or less plant damage and/or 100% mortality)” value is “very good to excellent levels of control efficacy”.
Regarding `COC(CN(C)C(=O)N1CCc2nn(-c3cccnc3)cc2C1)OC` [Compound 14, 2,4,6,7-tetrahydro-N-methyl-2-(3-pyridinyl)-N-(2,2-dimethoxyethyl)-5H-pyrazolo[4,3-c]pyridine-5-carboxamide], in data set [1], the mortality at 50 ppm is ≥ 80% and the mortality at 250 ppm is ≥ 80%.
In the case of `FC(F)(F)c1ccc(N2CCc3nn(-c4cccnc4)cc3C2)nc1` [Compound 19], the “control efficacy (30% or less plant damage and/or 100% mortality)” value in data set [3] is “very good to excellent levels of control efficacy”.
For the compound `c1cncc(N2CCc3nn(-c4cccnc4)cc3C2)c1` [Compound 52], the mortality at 250 ppm is ≥ 80% in data set [1] and ≥ 50% in data set [4].
`O=C(NCC(F)(F)F)N1CCc2nn(-c3cccnc3)cc2C1` [Compound 28] gave a melting point of 118.3 to 155.3 °C.
`COC(=O)NNC(=O)N1CCc2nn(-c3cccnc3)cc2C1` [Compound 10, 2,4,6,7-tetrahydro-2-(3-pyridinyl)-5H-pyrazolo[4,3-c]pyridine-5-carboxylic acid, 2-(methoxycarbonyl)hydrazide]: in data set [1], the mortality at 50 ppm was ≥ 80% and the mortality at 250 ppm was ≥ 80%. Moreover, the “control efficacy (30% or less plant damage and/or 100% mortality)” value in data set [3] is given as “very good to excellent levels of control efficacy”.
`CCNC(=O)N1CCc2nn(-c3cccnc3)cc2C1` [Compound 31] displayed a melting point of 151.1 to 170.5 °C.
As for `O=C(CC[S+]([O-])CC(F)(F)F)N1CCc2nn(-c3cccnc3)cc2C1` (stereo not shown) [Compound 23, 1-[2,4,6,7-tetrahydro-2-(3-pyridinyl)-5H-pyrazolo[4,3-c]pyridin-5-yl]-3-[(2,2,2-trifluoroethyl)sulfinyl]-1-propanone], the mortality at 250 ppm in data set [1] and in data set [2] (setting [5]) was ≥ 80% each time. Further, the “control efficacy (30% or less plant damage and/or 100% mortality)” value in data set [3] was “very good to excellent levels of control efficacy”.
With `c1cncc(-n2cc3c(n2)CCN(c2cnccn2)C3)c1` [Compound 48, 4,5,6,7-tetrahydro-2-(3-pyridinyl)-5-(2-pyrazinyl)-2H-pyrazolo[4,3-c]pyridine], the mortality at 250 ppm in data set [2] (setting [5]) was ≥ 80%.
Same read-out and setting: to `COC1CC(NC(=O)N2CCc3nn(-c4cccnc4)cc3C2)C1` (stereo not shown) [Compound 47, 2,4,6,7-tetrahydro-N-(3-methoxycyclobutyl)-2-(3-pyridinyl)-5H-pyrazolo[4,3-c]pyridine-5-carboxamide] belongs ≥ 80%.
Regarding `c1ccc(N2CCc3nn(-c4cccnc4)cc3C2)nc1` [Compound 49], the melting point lay in the range of 117 to 125.1 °C.
Regarding `CN(C)C(=O)OCC(=O)N1CCc2nn(-c3cccnc3)cc2C1` [Compound 51, 2-oxo-2-[2,4,6,7-tetrahydro-2-(3-pyridinyl)-5H-pyrazolo[4,3-c]pyridin-5-yl]ethyl N,N-dimethylcarbamate], the mortality at 250 ppm in data set [2] is ≥ 80%.
